US8461107B2 (Merck Sharp & Dohme Corp., priority 2008, dated 2013)

Molecular target: T1, HCV genotype 1b (BK) NS3 modified with a R155K mutation (Hepatitis C virus genotype 1b, UniProt P26663, R1181K)
T1 construct: HCV genotype 1b (BK) NS3 modified with a R155K mutation
Test: HCV NS3 protease time-resolved fluorescence (TRF) assay, NS3 protease 1b R155K Ki activity
Assay type: biochemical
Details: HCV genotype 1b (BK) NS3 with R155K mutation; TRF peptide substrate 100 nM; Ki derived from IC50
Description: The HCV NS3 protease inhibitory activity of the present compounds may be tested using assays known in the art. One such assay is HCV NS3 protease time-resolved fluorescence (TRF) assay as described below and in International Patent Application Publication WO 2006/102087. Other examples of such assays are described in e.g., International Patent Application Publication WO 2005/046712.
A NS3 protease assay can be performed, for example, in a final volume of 100 μl assay buffer containing 50 mM HEPES, pH 7.5, 150 mM NaCl, 15% glycerol, 0.15% TRITON X-100, 10 mM DTT, and 0.1% PEG 8000. NS3 and NS4A protease is pre-incubated with various concentrations of inhibitors in DMSO for 30 minutes. The reaction is initiated by adding the TRF peptide substrate (final concentration 100 nM). NS3 mediated hydrolysis of the substrate is quenched after 1 hour at room temperature with 100 μl of 500 mM MES, pH 5.5. Product fluorescence is detected using either a VICTOR V2 or FUSION fluorophotometer (Perkin Elmer Life and Analytical Sciences) with excitation at 340 nm and emission at 615 nm with a 400 μs delay. Testing concentrations of different enzyme forms are selected to result in a signal to background ratio (S/B) of 10-30. IC50 values are derived using a standard four-parameter fit to the data. Ki values are derived from IC50 values using the following formula, IC50=Ki(1+[S]/KM), Eqn (1), where [S] is the concentration of substrate peptide in the reaction and KM is the Michaelis constant. See P. Gallinari et al., 38 BIOCHEM. 5620-32 (1999); P. Gallinari et al., 72 J. VIROL. 6758-69 (1998); M. Taliani et al., 240 ANAL. BIOCHEM. 60-67 (1996).
The HCV NS3 protease inhibitory activity was measured using the protease time-resolved fluorescence (TRF) assay as described below and in International Patent Application Publication WO 2006/102087. The assay was performed with HCV genotype 1b (BK) NS3 modified with a R155K mutation.
The assay was performed in a final volume of 100 μl in assay buffer containing 50 mM HEPES, pH 7.5, 150 mM NaCl, 15% glycerol, 0.15% TRITON X-100, 10 mM DTT, and 0.1% PEG 8000. NS3 and NS4A protease is pre-incubated with various concentrations of inhibitors in DMSO for 30 minutes. The reaction is initiated by adding the TRF peptide substrate (final concentration 100 nM). NS3 mediated hydrolysis of the substrate is quenched after 1 hour at room temperature with 100 μl of 500 mM MES, pH 5.5. Product fluorescence is detected using either a VICTOR V2 or FUSION fluorophotometer (Perkin Elmer Life and Analytical Sciences) with excitation at 340 nm and emission at 615 nm with a 400 μs delay. Testing concentrations of the enzyme containing the R155K mutation were selected to result in a signal to background ratio (S/B) of 10-30. IC50 values are derived using a standard four-parameter fit to the data. Ki values are derived from IC50 values using the following formula, IC50=Ki(1+[S]/KM), Eqn (1), where [S] is the concentration of substrate peptide in the reaction and KM is the Michaelis constant. See P. Gallinari et al., 38 BIOCHEM. 5620-32 (1999); P. Gallinari et al., 72 J. VIROL. 6758-69 (1998); M. Taliani et al., 240 ANAL. BIOCHEM. 60-67 (1996).

Structure (SMILES)	Ki
C=C[C@@H]1C[C@]1(NC(=O)[C@@H]1C[C@@H]2CN1C(=O)[C@H](C1CCCC1)NC(=O)O[C@@H]1CCC[C@H]1CC/C=C/Cn1c(nc3cc(Br)ccc3c1=O)O2)C(=O)NS(=O)(=O)C1CC1 [Example 43, (3aR,7S,10S,12R,22E,25aS)-16-bromo-7-cyclopentyl-N-((1R,2S)-1-{[(cyclopropylsulfonyl)amino]carbonyl}-2-vinylcyclopropyl)-5,8,19-trioxo-1,2,3,3a,5,6,7,8,11,12,21,24,25,25a-tetradecahydro-10H,19H-9,12-methanocyclopenta[18,19][1,10,3,6,12]dioxatriazatriazacyclononadecino[11,12-b]quinazoline-10-carboxamide]	< 0.1 nM
CC[C@@H]1C[C@]1(NC(=O)[C@@H]1C[C@@H]2CN1C(=O)[C@H](C1CCCC1)NC(=O)O[C@@H]1CCC[C@H]1CC/C=C/Cn1c(nc3cc(OC)ccc3c1=O)O2)C(=O)NS(=O)(=O)C1CC1 [Example 50, (3aR,7S,10S,12R,22E,25aS)-7-cylcopentyl-N-((1R,2R)-1-{[(cyclopropylsulfonyl)amino]carbonyl}-2-ethylcyclopropyl)-16-methoxy-5,8,19-trioxo-1,2,3,3a,5,6,7,8,11,12,21,24,25,25a-tetradecahydro-10H,19H-9,12-methanocyclopenta[18,19][1,10,3,6,12]dioxatriazacyclononadecino[11,12-b]quinazoline-10-carboxamide]	0.1 to 0.5 nM
C=C[C@@H]1C[C@]1(NC(=O)[C@@H]1C[C@@H]2CN1C(=O)[C@H](C1CCCCC1)NC(=O)O[C@@H]1CCC[C@H]1CCCCCn1c(cc3cc(Cl)ccc3c1=O)O2)C(=O)NS(=O)(=O)C1CC1 [(3aR,7S,10S,12R,25aR)-16-chloro-7-cyclohexyl-N-((1R,2S)-1-{[(cyclopropylsulfonyl)amino]carbonyl}-2-vinylcyclopropyl)-5,8,19-trioxo-1,2,3,3a,5,6,7,8,11,12,21,22,23,24,25,25a-hexadecahydro-10H,19H-9,12-methanocyclopenta[18,19][1,10,3,6,12]dioxatriazacyclononadecino[12,11-b]isoquinoline-10-carboxamide]	< 0.1 nM
CC[C@@H]1C[C@]1(NC(=O)[C@@H]1C[C@@H]2CN1C(=O)[C@H](C1CCCC1)NC(=O)O[C@@H]1CCC[C@H]1CCCCCn1c(nc3cccc(OC)c3c1=O)O2)C(=O)NS(=O)(=O)C1CC1 [(3aR,7S,10S,12R,25aR)-7-cyclopentyl-N-((1R,2R)-1-{[(cyclopropylsulfonyl)amino]carbonyl}-2-ethylcyclopropyl)-18-methoxy-5,8,19-trioxo-1,2,3,3a,5,6,7,8,11,12,21,22,23,24,25,25a-hexadecahydro-10H,19H-9,12-methanocyclopenta[18,19][1,10,3,6,12]dioxatriazacyclononadecino[11,12-b]quinazoline-10-carboxamide]	0.5 to 1 nM
C=C[C@@H]1C[C@]1(NC(=O)[C@@H]1C[C@@H]2CN1C(=O)[C@H](C1CCCC1)NC(=O)O[C@@H]1CCC[C@H]1CC/C=C/Cn1c(nc3cc(OC)ccc3c1=O)O2)C(=O)NS(=O)(=O)C1CC1 [(3aR,7S,10S,12R,22E,25aS)-7-cyclopentyl-N-((1R,2S)-1-{[(cyclopropylsulfonyl)amino]carbonyl}-2-vinylcyclopropyl)-16-methoxy-5,8,19-trioxo-1,2,3,3a,5,6,7,8,11,12,21,24,25,25a-tetradecahydro-10H,19H-9,12-methanocyclopenta[18,19][1,10,3,6,12]dioxatriazacyclononadecino[11,12-b]quinazoline-10-carboxamide]	< 0.1 nM
C=C[C@@H]1C[C@]1(NC(=O)[C@@H]1C[C@@H]2CN1C(=O)[C@H](C1CCCC1)NC(=O)O[C@@H]1CCC[C@H]1CCCCCn1c(cc3ccc(F)cc3c1=O)O2)C(=O)NS(=O)(=O)C1CC1 [(3aR,7S,10S,12R,25aR)-7-cyclopentyl-N-((1R,2S)-1-{[(cyclopropylsulfonyl)amino]carbonyl}-2-vinylcyclopropyl)-17-fluoro-5,8,19-trioxo-1,2,3,3a,5,6,7,8,11,12,21,22,23,24,25,25a-hexadecahydro-10H,19H-9,12-methanocyclopenta[18,19][1,10,3,6,12]dioxatriazacyclononadecino[12,11-b]isoquinoline-10-carboxamide]	< 0.1 nM
CC[C@@H]1C[C@]1(NC(=O)[C@@H]1C[C@@H]2CN1C(=O)[C@H](C1CCCC1)NC(=O)O[C@@H]1CCC[C@H]1CCCCCn1c(cc3cc(Cl)ccc3c1=O)O2)C(=O)NS(=O)(=O)C1CC1 [(3aR,7S,10S,12R,25aR)-16-chloro-7-cyclopentyl-N-((1R,2R)-1-{[(cyclopropylsulfonyl)amino]carbonyl}-2-ethylcyclopropyl)-5,8,19-trioxo-1,2,3,3a,5,6,7,8,11,12,21,22,23,24,25,25a-hexadecahydro-10H,19H-9,12-methanocyclopenta[18,19][1,10,3,6,12]dioxatriazacyclononadecino[12,11-b]isoquinoline-10-carboxamide]	0.1 to 0.5 nM
C=C[C@@H]1C[C@]1(NC(=O)[C@@H]1C[C@@H]2CN1C(=O)[C@H](C1CCCC1)NC(=O)O[C@@H]1CCC[C@H]1CCCCCn1c(nc3ccccc3c1=O)O2)C(=O)NS(=O)(=O)C1CC1 [(3aR,7S,10S,12R,25aR)-7-cyclopentyl-N-((1R,2S)-1-{[(cyclopropylsulfonyl)amino]carbonyl}-2-vinylcyclopropyl)-5,8,19-trioxo-1,2,3,3a,5,6,7,8,11,12,21,22,23,24,25,25a-hexadecahydro-10H,19H-9,12-methanocyclopenta[18,19][1,10,3,6,12]dioxatriazacyclononadecino[11,12-b]quinazoline-10-carboxamide]	< 0.1 nM
C=C[C@@H]1C[C@]1(NC(=O)[C@@H]1C[C@@H]2CN1C(=O)[C@H](C1CCCC1)NC(=O)O[C@@H]1CCC[C@H]1CC/C=C/Cc1c(nc3ccccn3c1=O)O2)C(=O)NS(=O)(=O)C1CC1 [(3aR,7S,10S,12R,22E,25aS)-7-cyclopentyl-N-((1R,2S)-1-{[(cyclopropylsulfonyl)amino]carbonyl}-2-vinylcyclopropyl)-5,8,20-trioxo-1,2,3,3a,5,6,7,8,11,12,21,24,25,25a-tetradecahydro-10H,20H-9,12-methanocyclopenta[r]pyrido[1′,2′:1,2]pyrimido[4,5-k][1,10,3,6]dioxadiazacyclononadecine-10-carboxamide]	< 0.1 nM
C=C[C@@H]1C[C@]1(NC(=O)[C@@H]1C[C@@H]2CN1C(=O)[C@H](C1CCCC1)NC(=O)O[C@@H]1CCC[C@H]1C/C=C/CCn1c(cc3ccccc3c1=O)O2)C(=O)NS(=O)(=O)C1CC1 [Example 1, (3aR,7S,10S,12R,23E,25aS)-7-cyclopentyl-N-((1R,2S)-1-{[(cyclopropylsulfonyl)amino]carbonyl}-2-vinylcyclopropyl)-5,8,19-trioxo-1,2,3,3a,5,6,7,8,11,12,21,22,25,25a-tetradecahydro-10H,19H-9,12-methanocyclopenta[18,19][1,10,3,6,12]dioxatiazacyclononadecino[12,11-b]isoquinoline-10-carboxamide]	< 0.1 nM
CC[C@@H]1C[C@]1(NC(=O)[C@@H]1C[C@@H]2CN1C(=O)[C@H](C1CCCC1)NC(=O)O[C@@H]1CCC[C@H]1CCCCCn1c(cc3ccc(F)cc3c1=O)O2)C(=O)NS(=O)(=O)C1CC1 [Example 16, (3aR,7S,10S,12R,25aR)-7-cyclopentyl-N-((1R,2R)-1-{[(cyclopropylsulfonyl)amino]carbonyl}-2-ethylcyclopropyl)-17-flouoro-5,8,19-trioxo-1,2,3,3a,5,6,7,8,11,12,21,22,23,24,25,25a-hexadecahydro-10H,19H-9,12-methanocyclopenta[18,19][1,10,3,6,12]dioxatriazacyclononadecino[12,11-b]isoquinoline-10-carboxamide]	0.1 to 0.5 nM
